Results: US20250339402A1, “EFFECTIVE MEANS TO MODULATE NMDA RECEPTOR-MEDIATED TOXICITY” (FUNDAMENTAL PHARMA GMBH, priority 2022, published 2025)
Entries after “also recorded” stand apart in the source; their conditions may differ. Structures can show the parent of a compound that is named as a salt.

Key:
Assay type in all cases: cell-based
[1] = test system: human iPSC-derived prefrontal cortex organoids; assay: Cell survival after glutamate/NMDA treatment in prefrontal cortex organoids (RealTime-Glo MT Cell Viability Assay); conditions: pre-incubation 30 min, 200 μM NMDA for 24 h; compared with P401; FIG. 4; hydrochloride
Experimental: Prefrontal cortex organoids were generated based on published literature (Bauersachs H G et al, Neuroscience, 2022; 484:83-97). Around week 20, organoids were pre-incubated with compound 120 for 30 min before challenged with 200 μM NMDA for 24 h, where 80% of neuron will undergo necrosis. The cell death was monitored and analyzed with a RealTime-Glo™ MT Cell Viability Assay (Promega, G9711) following the manufacture's instruction using a plate reader (luciferase). The cell survival (%) can be calculated by the following equation: […]
Where Ft is the luciferase intensity at each time point and Fbasal is the basal luciferase intensity before glutamate/NMDA insult to diminish the difference between different organoids. The Control and FControlBasal stands for the same in untreated organoids, therefore the cell death can be calculated by normalization to the healthy organoids.

[2] = test system: Primary mouse hippocampal neurons; assay: Excitotoxic (glutamate/NMDA-induced) cell death in primary neuronal cultures, protection index; conditions: first subset; protection index from area above curve over 24 h glutamate/NMDA insult; compounds added 30 min before; 10 μM, Group A also at lower concentrations
Experimental: Primary mouse hippocampal neurons were prepared as previously described (Bading & Greenberg, Science, 1991; 253: 912-914; Zhang et al, Neuron, 2007, 53: 549-562) and maintained in Neurobasal-A medium supplemented with 2% B27, 5 mM L-Glutamax, and 0.5% Penicillin/Streptomycin until challenged with NMDA on days in vitro (DIV) 10. Glutamate-induced cell death was analyzed in a real-time manner by monitoring nuclear localized mCherry with IncuCyte® S3 Live-Cell Analysis System (Sartorius AG, Germany). Primary neurons plated in 24 well plates were infected with rAAV-hSyn-mCherry on DIV3 and challenged with 1 μM or 20 μM glutamate on DIV10. All compounds were added to the culture 30 min prior to glutamate/NMDA insult. Images were acquired following the glutamate application for 24 h with a 2 h interval, where 9-16 images were obtained via a 20×objective for each condition at each time point. Cell deaths were quantified by analyzing the existence of nuclear localized mCheery via the Basic Analyzer with Incucyte® 2021 software, size and average intensity were used as exclusion criteria.
In order to evaluate the protective effects of various compounds, a quantification method was developed to determine each compound's protection index. The protection index (from 0.0 to 10.0) was calculated by the area above the curve (AAC) during a 24 h excitotoxic stimuli, where the cell survival was normalized to the 0 h (FIG. 2), following the equation: […]
Where AAC represents for each compound, AACbasal represents for the basal condition without excitotoxic insult, AACVeh represents for the vehicle control with excitotoxic insult. Based on the equation, vehicle (DMSO) has a protection index at 0.0 and compound P401 of WO 2020/079244 has a protection index at 6.0 (at 10 μM).
The inventors also performed experiments with Group A compounds at lower concentration in a 3-fold dilution matter ([…]: 3.0, 1.0, 0.3, 0.1, 0.03) and were able to achieve a similar protection effect as 10 μM compound P401, but at a lower concentration.

NMDAR/TRPM4 complex = target: T1, NMDAR/TRPM4 complex (Homo sapiens, UniProt Q8TD43); assay: Co-immunoprecipitation of TRPM4 and NMDA receptor subunits, Western blot; conditions: 10 μM for 30 min; lysates of human iPSC-derived brain organoids precipitated with anti-TRPM4; FIG. 5; hydrochloride
T1 construct: endogenous in cells; host or cells: human iPSC-derived brain organoids, week 25
T1 sequence (Q8TD43 whole entry, one chain of several): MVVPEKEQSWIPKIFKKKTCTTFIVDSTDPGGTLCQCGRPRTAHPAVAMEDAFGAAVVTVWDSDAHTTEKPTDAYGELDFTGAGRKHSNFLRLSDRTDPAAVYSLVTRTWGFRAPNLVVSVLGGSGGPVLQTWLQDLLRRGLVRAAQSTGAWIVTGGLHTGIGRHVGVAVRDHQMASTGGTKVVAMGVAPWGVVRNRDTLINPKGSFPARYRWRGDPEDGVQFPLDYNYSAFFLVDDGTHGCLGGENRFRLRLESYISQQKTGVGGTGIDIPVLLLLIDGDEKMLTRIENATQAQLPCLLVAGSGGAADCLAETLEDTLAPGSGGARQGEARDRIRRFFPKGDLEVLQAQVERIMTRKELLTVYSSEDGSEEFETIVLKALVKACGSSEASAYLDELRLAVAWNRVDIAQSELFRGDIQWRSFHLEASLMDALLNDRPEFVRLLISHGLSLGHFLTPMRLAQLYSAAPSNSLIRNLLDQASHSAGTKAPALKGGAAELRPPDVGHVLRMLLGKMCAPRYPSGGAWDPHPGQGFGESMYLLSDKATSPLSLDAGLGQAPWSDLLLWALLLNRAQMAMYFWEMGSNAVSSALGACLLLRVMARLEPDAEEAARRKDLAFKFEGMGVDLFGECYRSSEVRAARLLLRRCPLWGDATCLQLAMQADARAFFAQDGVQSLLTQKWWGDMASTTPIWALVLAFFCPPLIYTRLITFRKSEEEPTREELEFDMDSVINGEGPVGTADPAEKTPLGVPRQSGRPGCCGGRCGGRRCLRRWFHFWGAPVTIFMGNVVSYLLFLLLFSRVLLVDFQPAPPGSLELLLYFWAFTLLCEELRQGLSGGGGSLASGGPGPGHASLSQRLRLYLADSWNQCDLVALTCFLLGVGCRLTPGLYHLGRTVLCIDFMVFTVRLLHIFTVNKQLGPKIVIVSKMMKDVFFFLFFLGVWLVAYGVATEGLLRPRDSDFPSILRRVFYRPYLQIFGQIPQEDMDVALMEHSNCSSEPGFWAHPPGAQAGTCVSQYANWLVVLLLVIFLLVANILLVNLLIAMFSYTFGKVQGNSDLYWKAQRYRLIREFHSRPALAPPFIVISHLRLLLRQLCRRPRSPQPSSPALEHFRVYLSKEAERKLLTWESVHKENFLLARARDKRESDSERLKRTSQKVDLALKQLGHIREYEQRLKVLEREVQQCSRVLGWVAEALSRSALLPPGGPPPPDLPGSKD
Experimental: All procedures for co-immunoprecipitation were carried out at 4° C. Human iPSC derived brain organoids were cultured in Falcon@6 well TC-treated cell culture plate to week 25 as described (Bauersachs H G et al, Neuroscience, 2022; 484:83-97), which allows an abundant expression of both GluN2A/GluN2B/TRPM4 expression. 6 brain organoids were incubated with 10 μM compound 120 for 30 min, washed twice with ice-cold PBS and then lysed in 500 μL immunoprecipitation buffer (10 mM Tris, pH 8.0, 150 mM NaCl, 1 mM EDTA, 1% NP-40, 10% glycerol with EDTA-free Protease Inhibitor Cocktail (Roche). The lysate was incubated while rotating for 60 min, centrifuged for 12 min at 1,200×g to remove cell debris and nuclei. 10% of the supernatant was boiled with Laemmli buffer for input samples analysis. The rest of the supernatant was mixed with anti-TRPM4 antibody (1:200) overnight. The mixture was then incubated with Pierce™ Protein A Magnetic Beads for another 12 h to pull down antibody complex, and washed with immunoprecipitation buffer to remove any unspecific bindings. After the last washing, the supernatant was carefully removed, and the precipitate pellets were boiled in Laemmli buffer. Both input and precipitate samples were stored at −20° C. until analysed with western blots. […]

SMILES: NCCN(Cc1cccc(Cl)c1F)C1CC1 [Compound 120, N1-(3-chloro-2-fluorobenzyl)-N1-cyclopropylethane-1,2-diamine hydrochloride]
- cell survival (%) after glutamate/NMDA treatment [1]: superior protection over compound P401; also recorded: improves cell survival after glutamate/NMDA treatment
- Biological Activity Rating [2]: A+++ (With a protection index between 5.0 to 7.0, provides a comparable protection to compound P401 (10 μM) at 0.3 μM.)
- disruption of NMDAR/TRPM4 complex (NMDAR/TRPM4 complex): the NMDAR/TRPM4 complex was disrupted; also recorded: disrupts the NMDAR/TRPM4 complex
